Laboratory results: patent US20050250742A1 (Pfizer Inc., priority 2004, published 2005)
pKd, pKi: −log10 of the molar value.

Tests used:
[1] = target: T1, PIN1-CD (catalytic PIN1 domain, devoid of the PIN1 WW domain) (Homo sapiens, UniProt Q13526); assay: Dissociation constant (Kd) with PIN1 catalytic domain; type: binding; conditions: peptide containing the catalytic PIN1 domain
T1 construct: PIN1 peptide containing the catalytic peptidyl-prolyl isomerase domain but devoid of the PIN1 WW domain
T1 sequence (Q13526 52-163 limits assumed): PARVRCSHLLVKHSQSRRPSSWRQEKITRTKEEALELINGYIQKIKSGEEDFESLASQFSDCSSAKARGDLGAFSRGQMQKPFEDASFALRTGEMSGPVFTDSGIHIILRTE
Source text: (§1) In Table 1, the Ki data reported under the PIN1—CD heading corresponds to testing with PIN1 peptide containing the catalytic peptidyl-prolyl isomerase domain but devoid of the PIN1 WW domain. Similarly, the dissociation constant (Kd) data under PIN1-CD refers to testing with a peptide containing the catalytic PIN1 domain but devoid of the PIN1 WW domain.

[2] = target: T2, PIN1-CD (catalytic peptidyl-prolyl isomerase domain, devoid of the PIN1 WW domain) (Homo sapiens, UniProt Q13526); assay: Pin1 peptidyl-prolyl isomerase assay (protease-coupled, spectrophotometric); type: biochemical; conditions: catalytic PPIase domain without WW domain; 15° C., pH 7.5, 100 μM Suc-AEPF-pNA
T2 construct: PIN1 peptide containing the catalytic peptidyl-prolyl isomerase domain but devoid of the PIN1 WW domain
T2 sequence (Q13526 52-163 limits assumed): as above
Source text: PIN1 is a phosphorylation dependent peptidyl-prolyl isomerase. The PIN1 assay is a spectrophotometric assay based on the coupled chymotrypsin or subtilisin catalyzed, cis-trans conformation dependent cleavage of a para-nitroanaline containing peptide substrate. […] Cleavage of the isomerized peptide releases para-nitroanaline, which can be monitored by an increase in absorbance at 390 nm. The PIN1 peptide substrate, succinyl-[…]-proline-phenylalanine-paranitroaniline (Suc-AEPF-pNA) (Bachem), is kept in a predominantly cis conformation with an anhydrous TFE/LiCl solvent mixture.
Upon dilution into an aqueous assay mixture containing PIN1, the peptide substrate undergoes PIN1 catalyzed isomerization to the trans conformation. […] To minimize the spontaneous isomerization of the peptide substrate, reactions are performed at 15° C. A typical reaction contains 25 mM MOPS pH 7.5, 0.5 mM TCEP, 2% DMSO, 5 μl of a 25 mg/ml solution of subtilisin Carlsberg, 50 nM PIN1-PPiase, and 100 μM Suc-AEPF-pNA peptide substrate. Reactions are cooled to 15° C. and initiated with the addition of Suc-AEPF-pNA. The absorbance at 390 nm is monitored continuously until all substrate has been converted to the cleaved product. […] The rate constant k is linearly proportional to the concentration of active enzyme present in the assay mixture once the rate constant for the spontaneous isomerization is subtracted. […] Therefore, during inhibition experiments, the IC50, for non-tight binding inhibitors, is essentially the inhibition constant Ki.
as §1

Row | pKd [1] | pKi [2] | SMILES
1 | > 5.00 | > 5.00 | O=C(O)[C@@H]1CCCCN1C(=O)N[C@@H](COP(=O)(O)O)Cc1ccccc1 [Example 16d, 1-(2-Phenyl-1-phosphonooxymethyl-ethylcarbamoyl)-piperidine-2-carboxylic acid]
2 | > 6.00 | > 6.00 | O=C(N[C@@H](COP(=O)(O)O)Cc1cccc(F)c1)c1ccc2ccccc2c1Br [Example 25-31, Phosphoric acid mono-[(R)-2-{[1-(1-bromo-naphthalen-2-yl)-methanoyl]-amino}-3-(3-fluoro-phenyl)-propyl]ester]
3 | > 6.00 | > 6.00 | CC(C)(C)C(=O)N[C@@H](COP(=O)(O)O)Cc1cccc(F)c1 [Example 25-30, Phosphoric acid mono-[(R)-2-(2,2dimethyl-propanoylamino)-3-(3-fluoro-phenyl)-propyl]ester]
4 | > 6.00 | > 6.00 | COc1ccc2cc(C(=O)N[C@@H](COP(=O)(O)O)Cc3cccc(F)c3)ccc2c1 [Example 25-32, Phosphoric acid mono-((R)-3-(3-fluoro-phenyl)-2-{[1-(6-methoxy-naphthalen-2-yl)-methanoyl]-amino}-propyl)ester]
5 | > 6.00 | > 6.00 | O=C(N[C@@H](COP(=O)(O)O)Cc1ccccc1)c1ccc2[nH]cnc2c1 [Example 25-23, Phosphoric acid mono-{(R)-2-[(1H-benzoimidazole-5-carbonyl)-amino]-3-phenyl-propyl}ester]
6 | > 6.00 | > 6.00 | COc1ccc2cc(C(=O)N[C@@H](COP(=O)(O)O)Cc3cccc(C)c3)ccc2c1 [Example 25-35, Phosphoric acid mono-((R)-2-{[1-(6-methoxy-naphthalen-2-yl)-methanoyl]-amino}-3-m-tolyl-propyl)ester]
7 | > 6.00 | > 6.00 | Cc1cccc(C[C@H](COP(=O)(O)O)NC(=O)c2ccc3ccccc3c2Br)c1 [Example 25-34, Phosphoric acid mono-((R)-2-{[1-(1-bromo-naphthalen-2-yl)-methanoyl]-amino}-3-m-tolyl-propyl)ester]
8 |  | > 5.00 | CC(=O)N[C@@H](COP(=O)(O)O)Cc1ccccc1 [Example 25-40, Phosphoric acid mono-(2-acetylamino-3-phenyl-propyl)ester]
9 |  | > 5.00 | CC(C)C(=O)N[C@@H](COP(=O)(O)O)Cc1ccccc1 [Example 25-15]

The remaining lines, values behind:

Row | SMILES | pKd [1] | pKi [2]
10 | CC(C)(C)OC(=O)N[C@@H](COP(=O)(O)O)Cc1cccnc1 [Example 30, (1-Phosphonooxymethyl-2-pyridin-3-yl-ethyl)-carbamic acid tert-butyl ester] | > 5.00 | > 4.00
11 | O=C(O[C@@H](COP(=O)(O)O)Cc1cccc(F)c1)c1cc2ccccc2s1 [Example 54] | > 6.00 | > 6.00
12 | O=C(O[C@@H](COP(=O)(O)O)Cc1ccccc1)c1ccc2ccccc2c1 [Example 49, Naphthalene-2-carboxylic acid (R)-2-phenyl-1-phosphonooxymethyl-ethyl ester] | > 6.00 | > 6.00
13 | O=C(N[C@H](CCc1ccccc1)COP(=O)(O)O)c1ccc2ccccc2c1 [Example 37, Phosphoric acid mono-{2-[(1-naphthalen-2-yl-methanoyl)-amino]-4-phenyl-butyl}ester] | > 5.70 | > 5.00
14 | O=C(O[C@@H](COP(=O)(O)O)Cc1cccc(F)c1)c1ccc2ccccc2c1 [Example 74, Naphthalene-2-carboxylic acid (R)-1-(3-fluoro-benzyl)-2-phosphonooxy-ethyl ester] | > 6.00 | > 6.00
15 | O=P(O)(O)OC[C@@H](Cc1ccccc1)NS(=O)(=O)N1CCCC[C@H]1c1nnc(Cc2ccccc2)o1 [Example 5b5, Phosphoric acid mono-{(R)-2-[(S)-2-(5-benzyl-[1,3,4]oxadiazol-2-yl)-piperidine-1-sulfonylamino]-3-phenyl-propyl}ester] | > 5.00 | > 5.00
16 | O=C(O)[C@@H]1CCCCN1S(=O)(=O)N[C@@H](COP(=O)(O)O)Cc1ccccc1 [Example 5b2, 1-(2-Phenyl-1-phosphonooxymethyl-ethylsulfamoyl)-piperidine-2-carboxylic acid] | > 5.00 | > 5.00
17 | O=C(OCCCCc1ccccc1)[C@@H]1CCCCN1S(=O)(=O)N[C@@H](COP(=O)(O)O)Cc1ccccc1 [Example 5b1, 1-(2-Phenyl-1-phosphonooxymethyl-ethylsulfamoyl)-piperidine-2S-carboxylic acid 4-phenyl-butyl ester] | > 5.00 | > 5.00
